In the NIST ThermoML archive (doi:10.1021/je200369m):
“And” between values parts separate entries of the source, which are not always exact repeats. Equal entries are not always repeated. Numbers after ± are expanded uncertainties.

Details: for mass density: Fluid (supercritical or subcritical phases), Buoyancy - hydrostatic balance with magnetic suspension - two sinkers; for vapor or sublimation pressure: Liquid, Closed cell

C=C(F)C(F)(F)F [2,3,3,3-tetrafluoro-1-propene]
Details | mass density [kg/m3]
232.01 K, 1003.6 kPa | 1297.66 ± 0.16
235.01 K, 1354.4 kPa | 1290.57 ± 0.16
240.01 K, 1309.7 kPa | 1276.93 ± 0.16
240.01 K, 5597.9 kPa | 1288.72 ± 0.16
245 K, 5368.7 kPa | 1275.09 ± 0.16
250 K, 2009.3 kPa | 1251.5 ± 0.16
250 K, 9475.2 kPa | 1273.53 ± 0.16
255 K, 5782.7 kPa | 1249.79 ± 0.16
260 K, 1001.4 kPa | 1219.36 ± 0.16
260 K, 9586.2 kPa | 1248.32 ± 0.16
265 K, 3824.7 kPa | 1215.48 ± 0.15
270 K, 1753.3 kPa | 1192.46 ± 0.15
270 K, 7264.8 kPa | 1214.11 ± 0.16
275 K, 4931.1 kPa | 1190.99 ± 0.15
280 K, 1780.9 kPa | 1161.43 ± 0.15
280 K, 8123.4 kPa | 1189.71 ± 0.15
285 K, 4675.9 kPa | 1160.07 ± 0.15
290 K, 1604.8 kPa | 1127.36 ± 0.15
290 K, 7579.1 kPa | 1158.85 ± 0.15
295 K, 4198.6 kPa | 1126 ± 0.15
300 K, 1079.2 kPa | 1087.77 ± 0.14
300 K, 6812.1 kPa | 1124.85 ± 0.15
305 K, 3364.3 kPa | 1086.43 ± 0.14
309.99 K, 5673.9 kPa | 1085.35 ± 0.14
310 K, 1004 kPa | 1047.05 ± 0.14
314.99 K, 2511.7 kPa | 1041.01 ± 0.14
319.99 K, 553.9 kPa | 26.402 ± 0.006
320 K, 973.2 kPa | 51.726 ± 0.009
320 K, 4518 kPa | 1040.05 ± 0.14
325 K, 1456.3 kPa | 982.689 ± 0.13
329.99 K, 574 kPa | 26.306 ± 0.006
330 K, 979.2 kPa | 49.047 ± 0.009
330 K, 985.9 kPa | 49.464 ± 0.009
330 K, 3108.2 kPa | 981.791 ± 0.13
335 K, 1592.5 kPa | 92.726 ± 0.014
335 K, 1798 kPa | 932.524 ± 0.12
335 K, 4770.8 kPa | 980.976 ± 0.13
340 K, 593.8 kPa | 26.211 ± 0.006
340 K, 980.9 kPa | 46.55 ± 0.008
340 K, 993.5 kPa | 47.298 ± 0.008
340 K, 1640.5 kPa | 92.612 ± 0.014
340 K, 1827.8 kPa | 110.941 ± 0.017
340 K, 3191.5 kPa | 931.599 ± 0.12
345 K, 4594.1 kPa | 930.707 ± 0.12
350 K, 613.2 kPa | 26.12 ± 0.006
350 K, 985.9 kPa | 44.652 ± 0.008
350 K, 1003 kPa | 45.555 ± 0.008
350 K, 1736.8 kPa | 92.623 ± 0.014
350 K, 2261.9 kPa | 146.58 ± 0.021
350 K, 2461 kPa | 839.342 ± 0.11
350 K, 6005.4 kPa | 929.873 ± 0.12
355 K, 2740.3 kPa | 801.182 ± 0.11
360 K, 632.4 kPa | 26.029 ± 0.006
360 K, 987.2 kPa | 42.763 ± 0.008
360 K, 1005.2 kPa | 43.637 ± 0.008
360 K, 1830.5 kPa | 92.622 ± 0.014
360 K, 2067 kPa | 110.845 ± 0.017
360 K, 2433.6 kPa | 146.594 ± 0.021
360 K, 2545.4 kPa | 160.529 ± 0.023
360 K, 2767.9 kPa | 197.534 ± 0.028
360 K, 3210.5 kPa | 772.483 ± 0.1
360 K, 3638.8 kPa | 800.559 ± 0.11
362 K, 2963.7 kPa | 235.115 ± 0.033
365 K, 991.9 kPa | 42.073 ± 0.008
365 K, 1876.6 kPa | 92.619 ± 0.014
365 K, 2516.7 kPa | 146.549 ± 0.022
365 K, 2892.6 kPa | 197.483 ± 0.028
365 K, 3086.7 kPa | 243.237 ± 0.034
365 K, 4553.7 kPa | 799.933 ± 0.11
368 K, 3184.3 kPa | 243.231 ± 0.034
370 K, 651.2 kPa | 25.938 ± 0.006
370 K, 993.7 kPa | 41.326 ± 0.008
370 K, 996.3 kPa | 41.436 ± 0.008
370 K, 2181.6 kPa | 110.789 ± 0.017
370 K, 2598.5 kPa | 146.499 ± 0.022
370 K, 2866.8 kPa | 176.561 ± 0.026
370 K, 3014.9 kPa | 197.482 ± 0.028
370 K, 3248.6 kPa | 243.253 ± 0.034
370 K, 3252.2 kPa | 244.129 ± 0.035
370 K, 5480.7 kPa | 799.34 ± 0.11
370.01 K, 1920.5 kPa | 92.497 ± 0.014
380 K, 667.9 kPa | 25.765 ± 0.006
380 K, 994.8 kPa | 39.809 ± 0.007
380 K, 2293.9 kPa | 110.737 ± 0.017
380 K, 3047.3 kPa | 173.864 ± 0.025
380 K, 3496.1 kPa | 231.99 ± 0.033
380 K, 6583.2 kPa | 770.356 ± 0.1
390 K, 670.7 kPa | 25.062 ± 0.006
390 K, 987.8 kPa | 38.088 ± 0.007
390 K, 2404.1 kPa | 110.68 ± 0.017
400 K, 683.2 kPa | 24.785 ± 0.006
400 K, 991.4 kPa | 36.952 ± 0.007
400 K, 2512.9 kPa | 110.64 ± 0.017

Details | vapor or sublimation pressure
250 K | 133.03 ± 0.07 kPa and 133.37 ± 0.07 kPa
260 K | 197.44 ± 0.08 kPa
270 K | 283.41 ± 0.08 kPa and 283.03 ± 0.08 kPa and 283.48 ± 0.08 kPa
280 K | 395.91 ± 0.1 kPa
290 K | 538.95 ± 0.11 kPa and 539.38 ± 0.11 kPa and 539.42 ± 0.11 kPa
300 K | 718.68 ± 0.12 kPa
309.99 K | 938.57 ± 0.15 kPa
310 K | 939.28 ± 0.15 kPa and 939.3 ± 0.15 kPa
312 K | 989.09 ± 0.15 kPa
314 K | 1040.9 ± 0.15 kPa
316 K | 1094.4 ± 0.16 kPa
319.99 K | 1206.8 ± 0.17 kPa and 1207 ± 0.17 kPa and 1206.4 ± 0.17 kPa
320 K | 1207.6 ± 0.17 kPa and 1207.7 ± 0.17 kPa
330 K | 1529 ± 0.19 kPa
340 K | 1910.2 ± 0.23 kPa
350 K | 2361.4 ± 0.26 kPa
355 K | 2616.5 ± 0.29 kPa
360 K | 2893.8 ± 0.31 kPa
362 K | 3011.5 ± 0.32 kPa
364 K | 3133.6 ± 0.34 kPa
366 K | 3260.2 ± 0.34 kPa
